According to patent USRE47475E1, “Selective agents for pain suppression” (WiSys Technology Foundation, Inc., priority 2002, dated 2019):
Like-named read-outs stand apart in the source and are kept apart here.

Experiments:
[1] = test system: Formalin Pain (mouse, i.p.); assay: T22 formalin test (chemically induced pain); assay type: in vivo
Procedure: This elicits a distinct bi-phasic behavioral profile in response to the formalin injection characterized by licking of the affected paw, and the number of licks is measured as a proxy for perceived pain. The first (acute) phase is thought to correspond to the direct stimulation of peripheral fibers while the second (inflammatory) phase is caused by the release of inflammatory mediators from the damaged tissue and nerve endings. Thus, this model is ideally suited for efficacy of an investigational AED against the acute and chronic hyper-responsive neuronal discharges following activation of peripheral nerve fibers.
The results of the formalin test are given both as raw data (“Response”) and in an aggregate, analyzed form (“Analysis”). In the Response section, each Trial involves sixteen animals, eight controls given an i.p. injection of vehicle and eight given the compound at a specified dose. Thus, for multiple doses of the compound, there will also be multiple control groups. The data recorded for each animal is the amount of time(s) spent licking the affected hind paw in a two minute period. These two minute periods occur at five minute intervals and continue for 45 minutes. […] From this plot, we can then determine the area under the curve (AUC) for each animal during both the acute and inflammatory stages. The AUC for each phase is shown in the analysis section of the data sheet for both control and drug-treated animals The AUC for each drug-treated animal is compared to the average result from the control group, yielding an average percent of control (reported with the SEM and p value).

[2] = target: T1, GABAA/α5 (α5β3γ2 GABAA receptor) (Homo sapiens, UniProt P18507+P31644); assay: competitive binding assay with [3H]flunitrazepam
T1 construct: expressed in transfected cells
Procedure: (§1) Membranes were harvested with a Brandel cell harvester followed by three ice-cold washes onto polyethyleneimine-pretreated (0.3%) Whatman GF/C filters. Filters were dried overnight and then soaked in Ecoscint, a liquid scintillation cocktail (National Diagnostics; Atlanta, Ga.). Bound radioactivity was quantified by liquid scintillation counting. Membrane protein concentrations were determined using an assay kit from Bio-Rad (Hercules, Calif.) with bovine serum albumin as the standard.
as §1, with “The GABAA subunit selectivity of several compounds prepared as described above were determined using competitive binding assays. […] Membranes” for “Membranes”

[3] = target: T2, GABAA/α2 (α2β3γ2 GABAA receptor) (Homo sapiens, UniProt P18507+P47869); assay: competitive binding assay with [3H]flunitrazepam
T2 construct: expressed in transfected cells
Procedure: as §1
as §1, with “The GABAA subunit selectivity of several compounds prepared as described above were determined using competitive binding assays. […] Membranes” for “Membranes”

[4] = target: T3, GABAA/α1 (α1β3γ2 GABAA receptor) (Homo sapiens, UniProt P14867+P18507); assay: competitive binding assay with [3H]flunitrazepam
T3 construct: expressed in transfected cells
Procedure: as §1
as §1, with “The GABAA subunit selectivity of several compounds prepared as described above were determined using competitive binding assays. […] Membranes” for “Membranes”

[5] = target: T4, GABAA/α3 (α3β3γ2 GABAA receptor) (Homo sapiens, UniProt P18507+P34903); assay: competitive binding assay with [3H]flunitrazepam
T4 construct: expressed in transfected cells
Procedure: as §1
as §1, with “The GABAA subunit selectivity of several compounds prepared as described above were determined using competitive binding assays. […] Membranes” for “Membranes”

[6] = test system: Sciatic Ligation neuropathic pain; assay: T23 partial ligation of the sciatic nerve (mechanical allodynia); assay type: in vivo, rats; details: dose 35.5 (HZ-166), 18 (JY-XHE-053), 1 (XLI-JY-DMH) mg/kg; TPE 2 hr
Procedure: Neuropathic pain. The pro- or antinociceptive effects of the compounds of the present invention are analyzed in two manners. […] Sterile technique will be used throughout the surgery. The upper thigh will be shaved and wiped off with ethanol and betadine. A small incision will then be made in the skin. The underlying muscle of the upper thigh will be separated and the sciatic nerve exposed. The nerve is separated from the surrounding connective tissue and slightly elevated by a pair of fine, curved forceps. Approximately ⅓ to ½ of the nerve is tied off by passing a needle (7.0) and nylon suture through the nerve. The muscle and skin incision are closed off separately with 5.0 suture and the animals kept warm until they have recovered from the anesthesia. This procedure is routinely done on the right side (ipsilateral) while a sham surgery is performed on the left hind leg (contralateral). The latter involves a similar procedure with the exception that the sciatic nerve on this side is only exposed. The rats will be closely monitored daily for the development of infection or untoward effects of the surgery in which case the animals will be immediately euthanized
After an appropriate time for recovery (7 days) the animals will be tested for the development of mechanical allodynia (abnormal response to a non-noxious stimulus). The animals are each put in a bottomless plexiglass box placed on a wire mesh (¼″) platform. After 30-60 minutes in which to acclimate, a baseline mechanical sensitivity is determined. This procedure is done by applying a series of calibrated Von Frey fibres perpendicularly to the plantar surface of each hind paw and holding it there for about 6 secs with enough force to slightly bend the fibre. After a positive response (withdrawal of the foot) is noted a weaker fibre is applied. This is repeated until a 50% threshold for withdrawal can be determined
The allodynic threshold is then redetermined after intraperitoneal administration of an investigational AED. Testing will be conducted at the time-to-peak effect of the AED as determined in the acute seizure model.

rhesus monkeys = assay: conflict model of anxiolytic activity which also measures sedation; assay type: in vivo; details: for anxiolytic effect (conflict model): intravenously in propylene glycol/water
Procedure: The data in FIGS. 21A-21F reflect the ability of the compounds or drugs to exert an anxioyic effect in rhesus monkeys (J. Rowlett, J. M. Cook et al., unpublished results) when given intravenously in propylene glycol/water solution. This is the conflict model of anxiolytic activity which also measures sedation. […] In FIG. 21B, SH-053-2′F (JY-XHE-053) is anxiolytic at a dose of greater than 0.13 mg/kg, but exerts only some slight sedation at doses greater than 1.2 mg/kg (responses decrease). In FIG. 21C it is clear the S-enantiomer of SH-053-2′F—S—CH3 is anxiolytic with no sedation up to 10-18 mg/kg, which is the highest dose tested.

[7] = test system: neuropathic pain after CCI of the sciatic nerve; assay: chronic constriction injury (CCI) model, mechanical sensitization (von Frey filaments); assay type: in vivo, mice; details: for analgesic effects in the chronic constriction injury model of neuropathic pain: mouse, in vivo
Procedure: In addition, the pro- or antinociceptive effects of the compounds of the present invention are analyzed in the chronic constriction injury (CCI) model. The GABAA receptor subunit selective test compounds of the present invention are analysed in the CCI model in 7-8-week-old C57BL/6 mice. See Bennett, G. J. & Xie, Y. K. A peripheral mononeuropathy in rat that produces disorders of pain sensation like those seen in man. […] Seven to eight week old mice are anesthetized with isofluran. Unilateral constriction injury of the left sciatic nerve just proximal to the trifurcation is performed with three loose ligatures. In sham-operated animals the sciatic nerve is exposed and the connective tissue is freed, but no ligatures are applied. […] Heat hyperalgesia, cold allodynia and mechanical sensitization are assessed 7-9 days after surgery. Mechanical sensitivity is assessed with electronic von Frey filaments (IITC).
Pain studies—Neuropathic pain: HZ166 and gabapentin were analyzed in the chronic constriction injury (CCI) model. Unilateral constriction injury of the left sciatic nerve just proximal to the trifurcation was performed as described previously (Bennett and Xie, 1988). Anesthesia was induced and maintained by 2% isoflurane, combined with oxygen (30%). The sciatic nerve was exposed at the mid-thigh level proximal to the sciatic trifurcation by blunt dissection through the biceps femoris muscle. […] of nerve were freed of adhering tissue and three chromic gut ligatures (4/0) (Ethicon) were loosely put around the nerve with about 1 mm spacing. The ligatures were tied until they elicited a brief twitch in the hindlimb. The surgical wound was closed in layers. Heat hyperalgesia and mechanical sensitization were assessed 7-16 days after surgery.
Pain Studies—Mechanical sensitization: Mechanical sensitivity was assessed with dynamic von Frey filaments (IITC, Woodland Hills, Calif.). 4-5 measurements were made for each time point and animal and averaged. Measurements of paw withdrawal thresholds of the injured paw and of the contralateral paw were made alternately.
Statistical Analysis: For all different doses and vehicle, baseline paw withdrawal thresholds/latencies on day 7 after nerve ligation or on day 2 after zymosan A injection were subtracted from all later withdrawal thresholds and the area under the curve (AUC) was calculated. Drug effects were expressed as percent maximum possible effect (MPE) calculated from comparisons of paw withdrawal latencies or thresholds obtained prior to surgery or inflammation and before and after drug treatment. […] Unless otherwise indicated, statistical comparisons were made with one-way analysis of variance (ANOVA) followed by Scheffe's post hoc test. P values<0.05 were considered significant.

## C[Si](C)(C)C#Cc1ccc2c(c1)C(c1ccccn1)=NCC(=O)N2
other
  melting point: 242 to 243 °C

## C#Cc1ccc2c(c1)C(c1ccccc1F)=NCc1c(C(=O)OCC)ncn1-2 [JY-XHE-053, 8-Acetyleno-6-(2′-fluorophenyl)-4H-benzo[f]imidazo[1,5-a][1,4]diazepine-3-carboxylate]
[1]; formalin test, acute phase
  protection at the acute phase of chemically induced pain: insignificant
[1]; mouse, i.p., acute phase, dose 16 (HZ-166), 10 (JY-XHE-053), 1 (XLI-JY-DMH) mg/kg
  Change (% of Control) ± SEM, T22 Formalin Pain, Acute: 98.41 % of Control
[1]; mouse, i.p., inflammatory phase, dose 16 (HZ-166), 10 (JY-XHE-053), 1 (XLI-JY-DMH) mg/kg
  Change (% of Control) ± SEM, T22 Formalin Pain, inflammatory: 84.58 % of Control
[2]; Table 3, read-out: Binding Affinity at GABAA/α5
  Ki: 0.671 nM
[3]; Table 3, read-out: Binding Affinity at GABAA/α2
  Ki: 12.3 nM
[4]; Table 3, read-out: Binding Affinity at GABAA/α1
  Ki: 22 nM
[5]; Table 3, read-out: Binding Affinity at GABAA/α3
  Ki: 34.9 nM
[6]
  Change (% of Control) ± SEM, T23 Sciatic Ligation: 132 ± 7 % of Control
  Significance, T23 Sciatic Ligation: yes
Rhesus monkeys; intravenously
  dose at which anxiolytic: greater than 0.13 mg/kg
[7]; 8 mg/kg and 30 mg/kg i.p.
  analgesic effect, mechanical sensitivity (von Frey) in CCI model: significant analgesic effect
[7]
  analgesic effects in the chronic constriction injury model of neuropathic pain: analgesic effects

## O=C(OCC(Cl)(Cl)Cl)c1ncn2c1CN=C(c1ccccc1)c1cc(Br)ccc1-2
other
  melting point: 113 to 116 °C

## C#Cc1ccc2c(c1)C(c1ccccc1)=NCc1c(C(=O)OCC(F)(F)F)ncn1-2 [DM-II-20, Trifluoroethyl 8-acetylenyl-6-phenyl-4H-benzo[f]imidazo[1,5-a][1,4]diaze-pine-3-carboxylate]
other
  melting point: 188 to 190 °C

## CCOC(=O)c1ncn2c1CN(C)C(=O)c1cc(F)ccc1-2 [Flumazenil, flumazenil, reference compound]
[7]; HZ166 16 mg/kg i.p., flumazenil 10 mg/kg i.p. 45 min later, n=6
  AUC of mechanical PWT, HZ166 followed by flumazenil: 0.54 ± 0.25 g·h
[7]; flumazenil 10 mg/kg i.p., HZ166 16 mg/kg
  effect on the antihyperalgesic effect of HZ166: almost completely reversed

## CCOC(=O)c1ncn2c1CN=C(c1ccccc1)c1cc(Cl)ccc1-2
other
  melting point: 174 to 175 °C

## CN1C(=O)CN=C(c2ccccn2)c2cc(C#C[Si](C)(C)C)ccc21
other
  melting point: 194 to 195 °C

## C#Cc1ccc2c(c1)C(c1cccs1)=NCc1c(C(=O)OCC)ncn1-2 [JC-221, Ethyl 8-acetyleno-6-(2′-thienyl)-4H-benzo[f]imidazo[1,5-a][1,4]diazepine-3-carboxylate]
[2]; Binding Affinity at GABAA/α5, Table 3
  Ki: 14.5 nM

## C[Si](C)(C)C#Cc1ccc2c(c1)C(c1ccccc1)=NCc1c(C(=O)OCC(F)(F)F)ncn1-2
other
  melting point: 107 to 110 °C

## C#Cc1ccc2c(c1)C(c1ccccc1F)=NC(C)c1c(C(=O)OCC)ncn1-2 (single isomer, unassigned) [SH-053-2′F-R-CH3, 8-Ethynyl-6-(2-fluorophenyl)-4-methyl-4H-2,5,10b-triaza-benzo[e]azulene-3-carboxylic acid ethyl ester]
Rhesus monkeys; intravenously
  sedative activity (conflict model): not sedating
Rhesus monkeys
  anxiolytic effect (conflict model): only a weak anxiolytic

## C#Cc1ccc2c(c1)C(c1ccccc1F)=NC(C)c1c(C(=O)OCC)ncn1-2 (single isomer, unassigned) [SH-053-2′F-S-CH3, 8-Ethynyl-6-(2-fluorophenyl)-4-methyl-4H-2,5,10b-triazabenzo[e]azulene-3-carboxylic acid ethyl ester]
Rhesus monkeys; conflict model
  no sedation up to dose: 10 to 18 mg/kg
Rhesus monkeys
  anxiolytic effect (conflict model): anxiolytic

## CNC1=Nc2ccc(C#C[Si](C)(C)C)cc2C(c2ccccc2)=NC1
other
  melting point: 210 to 211 °C

## CCOC(=O)c1ncn2c1CN=C(c1ccccn1)c1cc(C#C[Si](C)(C)C)ccc1-2
other
  melting point: 205 to 206 °C

## C#Cc1ccc2c(c1)C(c1ccccn1)=NC(C)c1c(C(=O)OCC)ncn1-2 (stereo not drawn) [SH-053-2′N-S-CH3, 8-Ethynyl-4-methyl-6-pyridin-2-yl-4H-2,5,10b-triaza-benzo[e]azulene-3-carboxylic acid ethyl ester]
[2]; Binding Affinity at GABAA/α5, Table 4, stereoisomers
  Ki: 744 nM
[3]; Binding Affinity at GABAA/α2, Table 4, stereoisomers
  Ki: 2330 nM
[4]; Binding Affinity at GABAA/α1, Table 4, stereoisomers
  Ki: 6950 nM
[5]; Binding Affinity at GABAA/α3, Table 4, stereoisomers
  Ki: 2650 nM

## C#Cc1ccc2c(c1)C(c1ccccn1)=NCC(=O)N2C
other
  melting point: 190 to 191 °C

## C#Cc1ccc2c(c1)C(c1ccccc1)=NCc1c(C(=O)OCC)ncn1-2 [XHE-II-053, Ethyl 8-acetylenyl-6-phenyl-4H-benzo[f]imidazo[1,5-a][1,4]diazepine-3-carboxylate]
Rhesus monkeys; intravenously
  sedative activity (conflict model): no sedative activity
Rhesus monkeys
  anxiolytic effect (conflict model): anxiolytic
[7]; 10 mg/kg i.p.
  analgesic effect, mechanical sensitivity (von Frey) in CCI model: significantly analgesic
[7]
  analgesic effects in the chronic constriction injury model of neuropathic pain: analgesic effects
